The target in one experiment is Aβ25-35 peptide (Homo sapiens, UniProt P05067). Description: Antifibrillogenic activity, thioflavine T (ThT) assay with Aβ25-35 peptide. The class given is biochemical. Conditions: compound 30 μM, Aβ25-35 peptide 100 μM, 50 μM phosphate buffer pH 5, 25° C., 24 hours; ThT 47 μM; ex 420 nm, em 490 nm; less fluorescence = less amyloid; read-out: ThT fluorescence (% of control). As to the method: The compounds of the present invention are also endowed with antifibrillogenic activity. When Aβ peptides are incubated with the compounds, a reduction in the formation of amyloid fibrils is observed. The amount of amyloid that results from peptide aggregation can be evaluated using the thioflavine T (ThT) assay as reported in the literature by Naiki et al., Analytical Biochemistry 1989, vol. 177, p. 244 and by H. LeVine III, Protein Science 1993, vol.2, p. 404. Compounds are incubated at a concentration of 30 μM, in 50 μM phosphate buffer pH 5 at 25° C. during 24 hours, with 100 μM peptide. The incubated samples are then diluted with sodium citrate buffer pH 5 containing 47 μM ThT. Fluorescence was measured with excitation at 420 nm and emission at 490 nm in a Kontron fluorescence spectrophotometer and the values were averaged after subtracting the background fluorescence of ThT. The less the fluorescence the less the amount of amyloid formed during the incubation period.
The following data obtained with the Aβ25-35 peptide are reported as examples.

A further experiment has as its system Aβ1-40 fibrils. Description: Binding to Aβ1-40 fibrils (filtration, HPLC quantification of bound compound). Conditions: 3% dimethylsulfoxide in water, 15 minutes, room temperature, Hill equation. On the procedure: The precipitated fibrils are centrifuged, washed with distilled water, centrifuged again and resuspended in distilled water at a concentration of […]. The fibril suspension is sonocated for one minute and freezed at -20° C. in aliquots until use. […] The resulting suspension is incubated at room temperature for 15 minutes. After incubation, the suspension is loaded onto a Millipore ultrafree MC filter (0.22 μm pore retention) and centrifuged for 5 minutes at 4° C. […] The amount of bound compound is quantified by HPLC. The aspecific binding of the compounds to the filter is evaluated by processing samples of the compounds, as previously described, in the absence of fibrils. The amount of compound bound to the filter is subtracted from the total binding value obtained in the presence of fibrils. Binding parameters were estimated by computerised non-linear regression analysis according to the Hill equation. Data are expressed as nanomoles of compound bound per mg of peptide monomer (Bmax)

In a further experiment the target is Aβ25-35 fibrils (Homo sapiens, UniProt P05067). Description: Binding of anthracyclinones and anthracyclines to Aβ25-35 fibrils (fluorescent detection of bound compound). Conditions: 10% dimethylsulfoxide in distilled water, 60 minutes, room temperature, rectangular hyperbola (binding isotherm), read-out: EC50 (affinity of the test compounds for the Aβ fibrils). As to the method: Binding of anthracyclinones and anthracyclines to Aβ fibrils
Fibrils from Aβ25-35 peptide are suspended in a solution of 10% dimethylsulfoxide in distilled water containing the test compound at various concentrations and incubated at room temperature for 60 minutes. After incubation, the samples are centrifuged at 15000 g for 10 minutes at room temperature and the supernatant withdrawn. Fibril pellets are washed three times with 0.3 ml of 10% DMSO in distilled water, dissolved in ethanol and the bound compound is quantified by fluorescent detection. EC50 are then calculated using rectangular hyperbola (binding isotherm) equation and represents the affinity of the test compounds for the Aβ fibrils.

The text below walks through data of patent US6103700A, “Fluoro labelled anthracyclinone and anthracycline derivatives” (Pharmacia & Upjohn S.p.A., priority 1996, dated 2000).

With `COc1cccc2c1C(=O)c1c(O)c3c(c(O)c1C2=O)C[C@@](O)(C(=O)CO)C[C@@H]3O[C@H]1C[C@H](NC(=O)C(F)(F)F)[C@H](I)[C@H](C)O1` [Compound A1, N-trifluoroacetyl-4'-iododoxorubicin], at Aβ25-35 peptide, the remaining activity at 30 µM stood at 20.6%.
Usually EC50 stands for the concentration giving half of the maximal effect. Turning to `COc1cccc2c1C(=O)c1c(O)c3c(c(O)c1C2=O)C[C@@](O)(C(=O)CO)C[C@@H]3O[C@H]1C[C@H](N)[C@H](I)[C@H](C)O1` [IDOX, iododoxorubicin, reference compound], at Aβ25-35 peptide, the remaining activity at 30 µM stood at 41%. Further, the “Bmax (nanomoles of compound bound per mg of peptide monomer)” value in the experiment with Aβ1-40 fibrils turned out to be 122.2 nmoles/mg Aβ1-40. At Aβ25-35 fibrils, the concentration for a half-maximal effect (EC50) was determined as 52 ± 10.7 µM.
Regarding `COc1cccc2c1C(=O)c1c(O)c3c(c(O)c1C2=O)C[C@@](O)(C(=O)CN1CCN(S(=O)(=O)C(F)(F)F)CC1)C[C@@H]3O` [Compound A3, 14-(4-trifluoromethanesulphonylpiperazin-1-yl)-daunomycinone], at Aβ25-35 peptide, the remaining activity at 30 µM is 23%. Also, the EC50 at Aβ25-35 fibrils was found to be 8.16 ± 1.32 µM.
Turning to `CCN(CC(=O)[C@]1(O)Cc2c(O)c3c(c(O)c2[C@@H](O)C1)C(=O)c1c(OC)cccc1C3=O)Cc1cc(C(F)(F)F)cc(C(F)(F)F)c1` [Compound A5, 14-[N-ethyl-N-(3,5-bis-trifluoromethylphenyl)methyl]daunomycinone], the remaining activity at 30 µM at Aβ25-35 peptide turned out to be 23.1%. Besides, the “Bmax (nanomoles of compound bound per mg of peptide monomer)” value with Aβ1-40 fibrils came out at 223.1 nmoles/mg Aβ1-40.
Consider `COc1cccc2c1C(=O)c1c(O)c3c(c(O)c1C2=O)C[C@@](O)(C(=O)CN1CC=CCC1)C[C@@H]3O[C@H]1C[C@H](NC(=O)C(F)(F)F)[C@H](I)[C@H](C)O1` [Compound A7, 14-(1,2,3,6-tetrahydropyridin-1-yl)-4'-deoxy-4'-iodo-3'-N-trifluoroacetyl daunorubicin], for which the remaining activity at 30 µM on Aβ25-35 peptide was 33.2%.
Turning to `COc1cccc2c1C(=O)c1c(O)c3c(c(O)c1C2=O)C[C@@](O)(C(=O)CN1CCN(C(=O)C(F)(F)F)CC1)C[C@@H]3O` [Compound A2, 14-(4-trifluoroacetylpiperazin-1-yl)-daunomycinone], the remaining activity at 30 µM on Aβ25-35 peptide amounted to 22.2%.
`COc1cccc2c1C(=O)c1c(O)c3c(c(O)c1C2=O)C[C@@](O)(C(=O)CN1CCN(c2cccc(C(F)(F)F)c2)CC1)C[C@@H]3O` [Compound A4, 14-[4-(3-trifluoromethylphenyl)piperazin-1-yl]-daunomycinone]: the remaining activity at 30 µM at Aβ25-35 peptide came out at 22.3%.
Still for that read-out and setting: to `COc1cccc2c1C(=O)c1c(O)c3c(c(O)c1C2=O)C[C@@](O)(C(=O)CN(Cc1ccccc1)CC(F)(F)F)C[C@@H]3O` [Compound A6, 14-[N-benzyl-N-(2,2,2-trifluoroethyl)]amino-daunomycinone] belongs 35%.
